Results published in patent US9284325B2, “Spectinamides as anti-tuberculosis agents” (UNIVERSITY OF TENNESSEE RESEARCH FOUNDATION, priority 2009, dated 2016).
Counter-ions that a name gives are not always drawn.

What was measured:
E. faecalis ATCC 33186 = assay: MIC determination by microbroth dilution; assay type: cell-based, Enterococcus faecalis; details: Enterococcus faecalis, ATCC33186
[1] = tested on: S. aureus 8325 or strain ATCC 29213; assay: MIC determination by microbroth dilution; assay type: cell-based, Staphylococcus aureus; details: Staphylococcus aureus, ATCC29213; S. aureus 8325 or strain ATCC 29213 (for 1471-1544)
[2] = tested on: Burkholderia cepacia ATCC 25416; assay: MIC determination by microbroth dilution; assay type: cell-based; details: ATCC25416, read-out: MIC B. cepcia
[3] = tested on: Strep. pneumoniae DAW27 or strain R6; assay: MIC determination by microbroth dilution; assay type: cell-based, Streptococcus pneumoniae; details: Streptococcus pneumoniae; Strep. pneumoniae DAW27 or strain R6 (for 1443-1544); read-out: MIC S. pneumoniae
E. coli K12 = assay: MIC determination by microbroth dilution; assay type: cell-based, Escherichia coli; details: Escherichia coli, K12
[4] = tested on: Strep. pyogenes ATCC 700294; assay: MIC determination by microbroth dilution; assay type: cell-based, Streptococcus pyogenes; details: Streptococcus pyogenes, ATCC700294, read-out: MIC S. pyogenes
[5] = tested on: Proteus vulgaris ATCC 33420; assay: MIC determination by microbroth dilution; assay type: cell-based; details: ATCC33420
E. coli ribosomes = assay type: biochemical; details: for relative inhibitory activity on luciferase production: tested at 0.66 and 6.6 μM, FIG. 5; for IC50, 50% inhibition of luciferase biosynthesis in S30 assay: E. coli S30 transcription/translation assay
M. tuberculosis H37Rv = assay: MIC determination by microbroth dilution, anti-tuberculosis activity; assay type: cell-based, Mycobacterium tuberculosis; details: Mycobacterium tuberculosis, H37RV, 168 h; read-out: MIC
[6] = tested on: Acinetobacter baumannii ATCC 19606; assay: MIC determination by microbroth dilution; assay type: cell-based; details: ATCC19606
[7] = tested on: Proteus mirabilis ATCC 25933; assay: MIC determination by microbroth dilution; assay type: cell-based; details: ATCC25933
[8] = tested on: Klebsiella pneumoniae ATCC 33495; assay: MIC determination by microbroth dilution; assay type: cell-based; details: ATCC33495
P. aeruginosa PAO1 = assay: MIC determination by microbroth dilution; assay type: cell-based, Pseudomonas aeruginosa; details: Pseudomonas aeruginosa
[9] = tested on: Strenotrophomonas maltophilia ATCC 13637; assay: MIC determination by microbroth dilution; assay type: cell-based
E. coli K12 ΔtolC = assay: microbe, parasite or virus in culture; assay type: cell-based; details: Escherichia coli, read-out: MIC E. coli K12 ΔtolC
B. anthracis Sterne 34F2 = assay: microbe, parasite or virus in culture; assay type: cell-based, Bacillus anthracis; details: Bacillus anthracis, STERNE34F2, read-out: MIC B. anthracis 34F2

Row | Compound | MIC (E. faecalis ATCC 33186) | MIC [1] | MIC [2] | MIC [3] | MIC (E. coli K12) | MIC [4] | MIC [5] | relative inhibitory activity on luciferase production (E. coli ribosomes) | MIC (M. tuberculosis H37Rv) | MIC [6] | MIC [7] | MIC [8] | MIC (P. aeruginosa PAO1) | MIC [9] | MIC (E. coli K12 ΔtolC) | MIC (B. anthracis Sterne 34F2) | IC50, 50% inhibition of luciferase biosynthesis in S30 assay (E. coli ribosomes)
1 | CN[C@@H]1[C@H](O)[C@H](NC)C2O[C@]3(O)C(OC2[C@H]1O)O[C@H](C)C[C@H]3NC(=O)CC(C)C (stereo partly drawn) [Compound 1369, 3′-Dihydro-3′-deoxy-4(R)-(3-methyl)-butanoylamino spectinomycin Dihydrochloride] | > 200 µg/mL | > 200 µg/mL | > 200 µg/mL | > 200 µg/mL | > 200 µg/mL | > 200 µg/mL | > 200 µg/mL | less active than 1329 | 200 µg/mL | > 200 µg/mL | > 200 µg/mL | > 200 µg/mL | > 200 µg/mL | > 200 µg/mL | > 200 µg/mL | 200 µg/mL | –
2 | CN[C@@H]1[C@H](O)[C@H](NC)C2O[C@]3(O)C(OC2[C@H]1O)O[C@H](C)C[C@H]3NC(=O)Cc1ccc(OC)cc1 (stereo partly drawn) [Compound 1446, 3′-Dihydro-3′-deoxy-4(R)-(4-methoxy-phenyl)acetylamino spectinomycin Dihydrochloride] | 200 µg/mL | > 200 µg/mL | > 200 µg/mL | 6.25 µg/mL | 200 µg/mL | 6.25 µg/mL | > 200 µg/mL | – | 12.5 µg/mL | > 200 µg/mL | > 200 µg/mL | 200 µg/mL | > 200 µg/mL | > 200 µg/mL | > 200 µg/mL | 100 µg/mL | 0.68 µg/mL
3 | CN[C@@H]1[C@H](O)[C@H](NC)C2O[C@]3(O)C(OC2[C@H]1O)O[C@H](C)C[C@H]3NC(=O)Cc1csc(N)n1 (stereo partly drawn) [Compound 1444, 3′-Dihydro-3′-deoxy-4(R)-(2-aminothiazol-4-yl)acetylamino spectinomycin trihydrobromide] | 50 µg/mL | 100 µg/mL | > 200 µg/mL | 25 µg/mL | 100 µg/mL | 25 µg/mL | > 200 µg/mL | – | 3.1 µg/mL | > 200 µg/mL | > 200 µg/mL | 100 µg/mL | > 200 µg/mL | > 200 µg/mL | 200 µg/mL | 6.25 µg/mL | 0.12 µg/mL
4 | CN[C@@H]1[C@H](O)[C@H](NC)C2O[C@]3(O)C(OC2[C@H]1O)O[C@H](C)C[C@H]3NC(=O)Cc1ccccc1 (stereo partly drawn) [Compound 1398, 3′-Dihydro-3′-deoxy-4(R)-phenylacetylamino spectinomycin Dihydrochloride] | > 200 µg/mL | 100 µg/mL | > 200 µg/mL | 100 µg/mL | > 200 µg/mL | 50 µg/mL | > 200 µg/mL | – | 6.1 µg/mL | > 200 µg/mL | > 200 µg/mL | > 200 µg/mL | 100 µg/mL | > 200 µg/mL | 200 µg/mL | 100 µg/mL | 0.78 µg/mL
5 | CN[C@@H]1[C@H](O)[C@H](NC)C2O[C@]3(O)C(OC2[C@H]1O)O[C@H](C)C[C@H]3NC(=O)c1cnccn1 (stereo partly drawn) [Compound 1453, 3′-Dihydro-3′-deoxy-4(R)-(pyrazine-2-yl)carboxylicamino spectinomycin tetrahydrobromide] | > 200 µg/mL | > 200 µg/mL | > 200 µg/mL | 25 µg/mL | > 200 µg/mL | 25 µg/mL | > 200 µg/mL | – | > 200 µg/mL | > 200 µg/mL | > 200 µg/mL | > 200 µg/mL | > 200 µg/mL | > 200 µg/mL | 200 µg/mL | > 200 µg/mL | 1.04 µg/mL
6 | CN[C@@H]1[C@H](O)[C@H](NC)C2O[C@]3(O)C(OC2[C@H]1O)O[C@H](C)C[C@H]3NC(=O)Cc1cccnc1 (stereo partly drawn) [Compound 1368, 3′-Dihydro-3′-deoxy-4(R)-(pyridin-3-yl)acetylamino spectinomycin Dihydrochloride] | > 200 µg/mL | 50 µg/mL | > 200 µg/mL | > 200 µg/mL | 100 µg/mL | > 200 µg/mL | > 200 µg/mL | – | 12.5 µg/mL | > 200 µg/mL | > 200 µg/mL | > 200 µg/mL | > 200 µg/mL | > 200 µg/mL | > 200 µg/mL | 6.25 µg/mL | 1.08 µg/mL
7 | CN[C@@H]1[C@H](O)[C@H](NC)C2O[C@]3(O)C(OC2[C@H]1O)O[C@H](C)C[C@H]3NCc1cccc(OC)c1 (stereo partly drawn) [Compound 1423, 3′-Dihydro-3′-deoxy-4(R)-(3-methoxy)benzylamino spectinomycin Trihydrochloride] | > 200 µg/mL | 200 µg/mL | > 200 µg/mL | 200 µg/mL | 200 µg/mL | 25 µg/mL | > 200 µg/mL | inhibited well | 200 µg/mL | > 200 µg/mL | > 200 µg/mL | > 200 µg/mL | > 200 µg/mL | > 200 µg/mL | 100 µg/mL | 200 µg/mL | –
8 | CN[C@@H]1[C@H](O)[C@H](NC)C2O[C@]3(O)C(OC2[C@H]1O)O[C@H](C)C[C@H]3NCc1ccc(F)cc1 (stereo partly drawn) [Compound 1424, 3′-Dihydro-3′-deoxy-4(R)-4-fluoro)benzylamino spectinomycin Trihydrochloride] | 100 µg/mL | 50 µg/mL | > 200 µg/mL | 25 µg/mL | 200 µg/mL | 50 µg/mL | > 200 µg/mL | inhibited well | 200 µg/mL | > 200 µg/mL | > 200 µg/mL | > 200 µg/mL | 200 µg/mL | > 200 µg/mL | 50 µg/mL | 100 µg/mL | 0.80 µg/mL
9 | CN[C@@H]1[C@H](O)[C@H](NC)C2O[C@]3(O)C(OC2[C@H]1O)O[C@H](C)C[C@H]3NC(=O)c1ccccn1 (stereo partly drawn) [Compound 1370, 3′-Dihydro-3′-deoxy-4(R)-pyridin-2-carboxylicamino spectinomycin Dihydrochloride] | > 200 µg/mL | > 200 µg/mL | > 200 µg/mL | > 200 µg/mL | 200 µg/mL | > 200 µg/mL | > 200 µg/mL | less active than 1329 | 100 µg/mL | > 200 µg/mL | > 200 µg/mL | > 200 µg/mL | > 200 µg/mL | > 200 µg/mL | 100 µg/mL | 50 µg/mL | 0.89 µg/mL
10 | CN[C@@H]1[C@H](O)[C@H](NC)C2O[C@]3(O)C(OC2[C@H]1O)O[C@H](C)C[C@H]3NC(=O)Cc1ccc(F)cc1 (stereo partly drawn) [Compound 1367, 3′-Dihydro-3′-deoxy-4(R)-(4-fluoro-phenyl)-acetylamino spectinomycin Dihydrochloride] | 200 µg/mL | 50 µg/mL | > 200 µg/mL | 50 µg/mL | 200 µg/mL | 50 µg/mL | > 200 µg/mL | – | 3.1 µg/mL | > 200 µg/mL | > 200 µg/mL | > 200 µg/mL | 100 µg/mL | > 200 µg/mL | 50 µg/mL | 50 µg/mL | 1.05 µg/mL
